# Laboratory results as given in patent US20220227762A1, “AMIDE-SUBSTITUTED IMIDAZO COMPOUNDS AS SELECTIVE INHIBITORS OF INDOLEAMINE 2,3-DIOXYGENASES” (BEIGENE, LTD., priority 2019, published 2022).
# Molecular target: T1, IDO1 (Homo sapiens, UniProt P14902)
# T1 construct: endogenous in cells; host or cells: HeLa cells (American Type Culture Collection), induced with human recombinant IFN-γ
# Experiment: HeLa Cell-Based IDO1 Kyn (Kynurenine) Production Assay
# Settings: HeLa cells, IDO1 induced by IFN-γ, 0.4 mM L-Trp, 48 hours incubation, Kyn absorbance at 480 nm; read-out: Cell-Based EC50 (nM) Hela IDO1
# Procedure: HeLa Cell-Based IDO1 Kyn (Kynurenine) Production Assay:
# The inhibitory activity of IDO1 inhibitors is determined by using a colorimetric reaction to measure Kyn generated from L-Trp (L-Tryptophon) oxidation by cellular IDO1 in HeLa cells after induction of IDO1 expression by IFN-γ. Hela cells were obtained from the American Type Culture Collection and recovered in 10% FBS-containing phenol red-free DMEM medium. Cells were plated onto a 96-well plate (100 μl/well) at 8000 cells per well and kept at 37° C. in a humidified incubator supplied with 5% CO2. 4 hours later, Human recombinant IFN-γ (8901SC, CST) was added to cells (final concentration 100 ng/mL) to stimulate endogenous IDO1. Compounds at different concentrations diluted in dimethylsulfoxide (DMSO) were added simultaneously with IFN-γ and 0.4 mM L-Trp. Cells were kept at 37° C. in a humidified incubator supplied with 5% CO2. After 48 hours of incubation, 100 μl supernatant from each well was removed to a new plate. The protein in the medium was precipitated with the addition of 8 μl 6N trichloroacetic acid. The plate was incubated at 60° C. for 30 minutes and then centrifugation at 2500 rpm for 10 minutes to remove sediments. 80 μl supernatants were carefully removed to a new clean plate and added with an equal volume of 2% 4-(Dimethylamino)benzaldehyde (D2004, Sigma) dissolved in glacial acetic acid. The absorbance at 480 nm wavelength derived from Kyn was measured using a PHERAstar FS plate reader (BMG LABTECH). The IC50 for each compound was derived from fitting the dose-response data to the four-parameter logistic model by using XLfit software (IDBS).
# T1 sequence (P14902 whole entry): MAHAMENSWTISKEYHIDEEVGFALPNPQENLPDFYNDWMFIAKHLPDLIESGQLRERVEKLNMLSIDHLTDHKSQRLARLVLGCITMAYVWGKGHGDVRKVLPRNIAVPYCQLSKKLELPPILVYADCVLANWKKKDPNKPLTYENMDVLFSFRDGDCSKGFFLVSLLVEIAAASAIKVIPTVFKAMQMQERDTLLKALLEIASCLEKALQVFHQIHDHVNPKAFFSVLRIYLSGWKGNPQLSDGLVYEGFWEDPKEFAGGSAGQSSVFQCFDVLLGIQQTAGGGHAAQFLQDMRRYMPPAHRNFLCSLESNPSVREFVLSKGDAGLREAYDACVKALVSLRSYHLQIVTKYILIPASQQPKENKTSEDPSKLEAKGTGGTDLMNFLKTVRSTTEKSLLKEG
row,EC50 [nM],SMILES
1,3.12,"CC(c1nc2cnc(C(=O)NC3CC3)cc2[nH]1)[C@H]1CC[C@@H](c2ccnc3ccc(F)cc32)CC1 (mixture of isomers) [Example 22, N-cyclopropyl-2-(1-((1s,4s)-4-(6-fluoroquinolin-4-yl)cyclohexyl)ethyl)-1H-imidazo[4,5-c]pyridine-6-carboxamide]"
2,7.12,"CNC(=O)c1cc2[nH]c(C(C)[C@H]3CC[C@@H](c4ccnc5ccc(F)cc54)CC3)nc2cn1 (mixture of isomers) [Example 23, 2-(1-((1s,4s)-4-(6-fluoroquinolin-4-yl)cyclohexyl)ethyl)-N-methyl-1H-imidazo[4,5-c]pyridine-6-carboxamide]"
3,64.1,"CNC(=O)c1ccc2[nH]c(C(C)[C@H]3CC[C@@H](c4ccnc5ccc(F)cc54)CC3)nc2c1 (stereo partly shown) [Example 1, 2-(1-((1s,4s)-4-(6-fluoroquinolin-4-yl)cyclohexyl)ethyl)-N-methyl-1H-benzo[d]imidazole-5-carboxamide]"
4,50.6,"CC(C)NC(=O)c1ccc2nc([C@H](C)[C@H]3CC[C@@H](c4ccnc5ccc(F)cc54)CC3)[nH]c2c1 [Example 2, 2-((R)-1-((1s,4S)-4-(6-fluoroquinolin-4-yl)cyclohexyl)ethyl)-N-isopropyl-1H-benzo[d]imidazole-6-carboxamide]"
5,74.5,"C[C@@H](c1nc2ccc(C(=O)NC(C)(C)C)cc2[nH]1)[C@H]1CC[C@@H](c2ccnc3ccc(F)cc32)CC1 [Example 3, N-(tert-butyl)-2-((R)-1-((1s,4S)-4-(6-fluoroquinolin-4-yl)cyclohexyl)ethyl)-1H-benzo[d]imidazole-6-carboxamide]"
6,38.8,"C[C@@H](c1nc2ccc(C(=O)NC3CCCC3)cc2[nH]1)[C@H]1CC[C@@H](c2ccnc3ccc(F)cc32)CC1 [Example 5, N-cyclopentyl-2-((R)-1-((1s,4S)-4-(6-fluoroquinolin-4-yl)cyclohexyl)ethyl)-1H-benzo[d]imidazole-6-carboxamide]"
7,40.2,"C[C@@H](c1nc2ccc(C(=O)NC3CCCCC3)cc2[nH]1)[C@H]1CC[C@@H](c2ccnc3ccc(F)cc32)CC1 [Example 6, N-cyclohexyl-2-((R)-1-((1s,4S)-4-(6-fluoroquinolin-4-yl)cyclohexyl)ethyl)-1H-benzo[d]imidazole-6-carboxamide]"
8,470,"CONC(=O)c1ccc2nc(C(C)[C@H]3CC[C@@H](c4ccnc5ccc(F)cc54)CC3)[nH]c2c1 (stereo partly shown) [Example 7, 2-(1-((1s,4s)-4-(6-fluoroquinolin-4-yl)cyclohexyl)ethyl)-N-methoxy-1H-benzo[d]imidazole-6-carboxamide]"
9,46.1,"CC(c1nc2cc(C(=O)N(C)C)ccc2[nH]1)[C@H]1CC[C@@H](c2ccnc3ccc(F)cc32)CC1 (stereo partly shown) [Example 8, 2-(1-((1s,4s)-4-(6-fluoroquinolin-4-yl)cyclohexyl)ethyl)-N,N-dimethyl-1H-benzo[d]imidazole-5-carboxamide]"
10,12.6,"C[C@@H](c1nc2ccc(C(=O)NC3CC3)cc2[nH]1)[C@H]1CC[C@@H](c2ccnc3ccc(F)cc32)CC1 [Example 9, N-cyclopropyl-2-((R)-1-((1s,4S)-4-(6-fluoroquinolin-4-yl)cyclohexyl)ethyl)-1H-benzo[d]imidazole-6-carboxamide]"
11,27.1,"Cc1cc(C(=O)NC2CCC2)cc2nc(C(C)[C@H]3CC[C@@H](c4ccnc5ccc(F)cc54)CC3)[nH]c12 (stereo partly shown) [Example 10, N-cyclobutyl-2-(1-((1s,4s)-4-(6-fluoroquinolin-4-yl)cyclohexyl)ethyl)-7-methyl-1H-benzo[d]imidazole-5-carboxamide]"
12,788,"Cc1cc(C(=O)NC2CCC2)cc2nc([C@@H](C)[C@H]3CC[C@@H](c4ccnc5ccc(F)cc54)CC3)[nH]c12 [Example 10a, N-cyclobutyl-2-((R)-1-((1s,4S)-4-(6-fluoroquinolin-4-yl)cyclohexyl)ethyl)-7-methyl-1H-benzo[d]imidazole-5-carboxamide]"
13,17.1,"Cc1cc(C(=O)NC2CCC2)cc2nc([C@H](C)[C@H]3CC[C@@H](c4ccnc5ccc(F)cc54)CC3)[nH]c12 [Example 10b, N-cyclobutyl-2-((S)-1-((1s,4R)-4-(6-fluoroquinolin-4 yl)cyclohexyl)ethyl)-7-methyl-1H-benzo[d]imidazole-5-carboxamide]"
14,84.1,"CC(c1nc2ccc(C(=O)NC3COC3)cc2[nH]1)C1CCC(c2ccnc3ccc(F)cc23)CC1 (stereo not shown) [Example 11, 2-(1-(4-(6-fluoroquinolin-4-yl)cyclohexyl)ethyl)-N-(oxetan-3-yl)-1H-benzo[d]imidazole-6-carboxamide]"
15,959,"COCCNC(=O)c1ccc2nc([C@H](C)[C@H]3CC[C@H](c4ccnc5ccc(F)cc54)CC3)[nH]c2c1 [Example 12, 2-((R)-1-((1r,4R)-4-(6-fluoroquinolin-4-yl)cyclohexyl)ethyl)-N-(2-methoxyethyl)-1H-benzo[d]imidazole-6-carboxamide]"
16,62.9,"COCCNC(=O)c1ccc2nc([C@H](C)[C@H]3CC[C@@H](c4ccnc5ccc(F)cc54)CC3)[nH]c2c1 [Example 13, 2-((R)-1-((1s,4S)-4-(6-fluoroquinolin-4-yl)cyclohexyl)ethyl)-N-(2-methoxyethyl)-1H-benzo[d]imidazole-6-carboxamide]"
17,14.4,"C[C@@H](c1nc2ccc(C(=O)Nc3ccccc3)cc2[nH]1)[C@H]1CC[C@@H](c2ccnc3ccc(F)cc32)CC1 [Example 14, 2-((R)-1-((1s,4S)-4-(6-fluoroquinolin-4-yl)cyclohexyl)ethyl)-N phenyl-1H-benzo[d]imidazole-6-carboxamide]"
18,86.7,"C[C@@H](c1nc2ccc(C(=O)Nc3ccccc3)cc2[nH]1)[C@H]1CC[C@H](c2ccnc3ccc(F)cc32)CC1 [Example 15, 2-((R)-1-((1r,4R)-4-(6-fluoroquinolin-4-yl)cyclohexyl)ethyl)-N-phenyl-1H-benzo[d]imidazole-6-carboxamide]"
19,> 1000,"C[C@@H](c1nc2ccc(C(=O)NCC3(O)CCC3)cc2[nH]1)[C@H]1CC[C@@H](c2ccnc3ccc(F)cc32)CC1 [Example 16, 2-((R)-1-((1s,4S)-4-(6-fluoroquinolin-4-yl)cyclohexyl)ethyl)-N-((1-hydroxycyclobutyl)methyl)-1H-benzo[d]imidazole-6-carboxamide]"
20,> 1000,"C[C@@H](c1nc2ccc(C(=O)NCC3(O)CCC3)cc2[nH]1)[C@H]1CC[C@H](c2ccnc3ccc(F)cc32)CC1 [Example 17, 2-((R)-1-((1 r,4R)-4-(6-fluoroquinolin-4-yl)cyclohexyl)ethyl)-N-((1-hydroxycyclobutyl)methyl)-1H-benzo[d]imidazole-6-carboxamide]"
21,122,"COC1CCC(NC(=O)c2ccc3nc([C@H](C)[C@H]4CC[C@@H](c5ccnc6ccc(F)cc65)CC4)[nH]c3c2)CC1 (stereo partly drawn) [Example 18, 2-((R)-1-((1s,4S)-4-(6-fluoroquinolin-4-yl)cyclohexyl)ethyl)-N-(4-methoxycyclohexyl)-1H-benzo[d]imidazole-6-carboxamide]"
22,193,"COC1CCC(NC(=O)c2ccc3nc([C@H](C)[C@H]4CC[C@H](c5ccnc6ccc(F)cc65)CC4)[nH]c3c2)CC1 (stereo partly drawn) [Example 19, 2-((R)-1-((1r,4R)-4-(6-fluoroquinolin-4-yl)cyclohexyl)ethyl)-N-(4-methoxycyclohexyl)-1H-benzo[d]imidazole-6-carboxamide]"
